Assay results reported in patent publication US20260176320A1, “MODULATORS OF G-PROTEIN COUPLED RECEPTORS” (priority 2018, published 2026).

Experiments:
Assay type in all cases: cell-based
[1] = molecular target: T1, GLP-1R (Homo sapiens, UniProt P43220); test: PathHunter β-arrestin assay; conditions: PathHunter β-arrestin assay; read-out: β-arrestin activity EC50
Outline: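 Agonist concentration–response (22 points, 2-fold steps, duplicates) was run on cells plated the previous day in BSA-supplemented (0.2%) medium. Stimulation lasted 90 min at 37 °C, followed by a 3 h dark incubation with detection reagent at room temperature and a luminescence read.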

[2] = molecular target: T1, GLP-1R; test: HitHunter cAMP assay (GLP-1R); conditions: Table 3A, cAMP; for EC50: read-out: EC50 GLP-1R/nM; for Emax: read-out: (Emax) GLP-1R
Outline: (§1)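 Cells were resuspended in HBSS plus HEPES, IBMX (625 μM) and BSA, then dispensed with antibody at 10,000 per well. Agonists followed as 22-point twofold series, 30 min at room temperature. Antibody reagent and detection steps ran 1 h and overnight in the dark before luminescence.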

[3] = molecular target: T2, GIP-R (Homo sapiens, UniProt P48546); test: HitHunter cAMP assay (GIP-R); conditions: Table 3A, cAMP; for Emax: read-out: (Emax) GIP-R; for EC50: read-out: EC50 GIP-R/nM
T2 sequence (P48546 22-466): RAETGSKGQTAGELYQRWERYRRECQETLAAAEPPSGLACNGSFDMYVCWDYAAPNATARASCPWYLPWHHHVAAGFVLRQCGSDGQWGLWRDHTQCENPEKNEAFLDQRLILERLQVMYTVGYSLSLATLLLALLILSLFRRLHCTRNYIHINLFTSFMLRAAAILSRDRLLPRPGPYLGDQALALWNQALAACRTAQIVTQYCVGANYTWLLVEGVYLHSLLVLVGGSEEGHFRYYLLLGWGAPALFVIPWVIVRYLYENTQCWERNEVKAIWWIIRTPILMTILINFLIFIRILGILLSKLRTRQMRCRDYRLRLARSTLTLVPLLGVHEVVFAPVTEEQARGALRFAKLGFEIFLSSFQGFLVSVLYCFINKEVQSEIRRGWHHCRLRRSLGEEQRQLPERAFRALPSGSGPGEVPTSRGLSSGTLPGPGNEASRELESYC
Outline: as §1

T1 sequence (P43220 24-463): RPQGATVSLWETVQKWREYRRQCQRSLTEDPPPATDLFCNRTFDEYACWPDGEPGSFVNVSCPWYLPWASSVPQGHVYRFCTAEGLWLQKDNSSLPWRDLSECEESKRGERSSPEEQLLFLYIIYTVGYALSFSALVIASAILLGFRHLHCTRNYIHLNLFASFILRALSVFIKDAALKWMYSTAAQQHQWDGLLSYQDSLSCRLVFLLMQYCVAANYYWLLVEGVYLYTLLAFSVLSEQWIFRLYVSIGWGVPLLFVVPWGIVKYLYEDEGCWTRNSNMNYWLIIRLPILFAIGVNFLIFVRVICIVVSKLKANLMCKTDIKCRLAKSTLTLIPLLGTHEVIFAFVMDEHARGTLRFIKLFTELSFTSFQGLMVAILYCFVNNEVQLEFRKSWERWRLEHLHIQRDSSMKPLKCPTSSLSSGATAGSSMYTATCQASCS

Compound	EC50 [1] [nM]	EC50 [2] [nM]	Emax [3] [%]	EC50 [3] [nM]	Emax [2] [%]
CCCCCCCCCCCCCCCC(=O)N[C@@H](CCC(=O)NCCCC[C@H](NC(=O)[C@H](CO)NC(=O)[C@@H]1CCCN1C(=O)[C@@H]1CCCN1C(=O)[C@@H]1CCCN1C(=O)[C@H](C)NC(=O)CNC(=O)[C@H](CO)NC(=O)[C@H](CO)NC(=O)[C@@H]1CCCN1C(=O)CNC(=O)CNC(=O)[C@H](C)NC(=O)[C@H](CC(C)C)NC(=O)[C@H](CC(C)C)NC(=O)[C@H](Cc1c[nH]c2ccccc12)NC(=O)[C@H](CC(N)=O)NC(=O)[C@@H](NC(=O)[C@H](Cc1ccccc1)NC(=O)[C@H](CCC(=O)O)NC(=O)C(C)(C)NC(=O)[C@H](C)NC(=O)[C@H](C)NC(=O)[C@H](CCC(N)=O)NC(=O)[C@H](CCCCN)NC(=O)[C@H](CC(=O)O)NC(=O)[C@H](CC(C)C)NC(=O)[C@H](Cc1ccc(O)cc1)NC(=O)[C@@H](NC(=O)[C@H](CO)NC(=O)[C@H](Cc1ccc(O)cc1)NC(=O)[C@H](CC(=O)O)NC(=O)[C@H](CO)NC(=O)[C@@H](NC(=O)[C@H](Cc1ccccc1)NC(=O)[C@@H](NC(=O)CNC(=O)[C@H](CCC(=O)O)NC(=O)CC(C)(C)C(=O)NCCN1CCCCC1=O)[C@@H](C)O)[C@@H](C)O)[C@@H](C)CC)C(C)C)C(N)=O)C(=O)O [Compound 204]	20 to 1000	< 0.1	98	10 to 100	–
CCCCCCCCCCCCCCCC(=O)N[C@@H](CCC(=O)NCCCC[C@H](NC(=O)[C@H](CO)NC(=O)[C@@H]1CCCN1C(=O)[C@@H]1CCCN1C(=O)[C@@H]1CCCN1C(=O)[C@H](C)NC(=O)CNC(=O)[C@H](CO)NC(=O)[C@H](CO)NC(=O)[C@@H]1CCCN1C(=O)CNC(=O)CNC(=O)[C@H](C)NC(=O)[C@H](CC(C)C)NC(=O)[C@H](CC(C)C)NC(=O)[C@H](Cc1c[nH]c2ccccc12)NC(=O)[C@H](CC(N)=O)NC(=O)[C@@H](NC(=O)[C@H](Cc1ccccc1)NC(=O)[C@H](CCC(=O)O)NC(=O)C(C)(C)NC(=O)[C@H](C)NC(=O)[C@H](C)NC(=O)[C@H](CCC(N)=O)NC(=O)[C@H](CCCCN)NC(=O)[C@H](CC(=O)O)NC(=O)[C@H](CC(C)C)NC(=O)[C@H](Cc1ccc(O)cc1)NC(=O)[C@@H](NC(=O)[C@H](CO)NC(=O)[C@H](Cc1ccc(O)cc1)NC(=O)[C@H](CC(=O)O)NC(=O)[C@H](CO)NC(=O)[C@@H](NC(=O)[C@H](Cc1ccccc1)NC(=O)[C@@H](NC(=O)CNC(=O)[C@H](CCC(=O)O)NC(=O)CN(C)C(=O)CN1CCCCC1=O)[C@@H](C)O)[C@@H](C)O)[C@@H](C)CC)C(C)C)C(N)=O)C(=O)O [Compound 205]	> 1000	< 0.1	61	1 to 10	–
CCCCCCCCCCCCCCCC(=O)N[C@@H](CCC(=O)NCCCC[C@H](NC(=O)[C@H](CO)NC(=O)[C@@H]1CCCN1C(=O)[C@@H]1CCCN1C(=O)[C@@H]1CCCN1C(=O)[C@H](C)NC(=O)CNC(=O)[C@H](CO)NC(=O)[C@H](CO)NC(=O)[C@@H]1CCCN1C(=O)CNC(=O)CNC(=O)[C@H](C)NC(=O)[C@H](CC(C)C)NC(=O)[C@H](CC(C)C)NC(=O)[C@H](Cc1c[nH]c2ccccc12)NC(=O)[C@H](CC(N)=O)NC(=O)[C@@H](NC(=O)[C@H](Cc1ccccc1)NC(=O)[C@H](CCC(=O)O)NC(=O)C(C)(C)NC(=O)[C@H](C)NC(=O)[C@H](C)NC(=O)[C@H](CCC(N)=O)NC(=O)[C@H](CCCCN)NC(=O)[C@H](CC(=O)O)NC(=O)[C@H](CC(C)C)NC(=O)[C@H](Cc1ccc(O)cc1)NC(=O)[C@@H](NC(=O)[C@H](CO)NC(=O)[C@H](Cc1ccc(O)cc1)NC(=O)[C@H](CC(=O)O)NC(=O)[C@H](CO)NC(=O)[C@@H](NC(=O)[C@H](Cc1ccccc1)NC(=O)[C@@H](NC(=O)CNC(=O)[C@H](CCC(=O)O)NC(=O)CN(C)C(=O)CCN1CCCCC1=O)[C@@H](C)O)[C@@H](C)O)[C@@H](C)CC)C(C)C)C(N)=O)C(=O)O [Compound 206]	> 1000	< 0.1	18	100 to 1000	–
CCCCCCCCCCCCCCCC(=O)N[C@@H](CCC(=O)NCCCC[C@H](NC(=O)[C@H](CO)NC(=O)[C@@H]1CCCN1C(=O)[C@@H]1CCCN1C(=O)[C@@H]1CCCN1C(=O)[C@H](C)NC(=O)CNC(=O)[C@H](CO)NC(=O)[C@H](CO)NC(=O)[C@@H]1CCCN1C(=O)CNC(=O)CNC(=O)[C@H](C)NC(=O)[C@H](CC(C)C)NC(=O)[C@H](CC(C)C)NC(=O)[C@H](Cc1c[nH]c2ccccc12)NC(=O)[C@H](CC(N)=O)NC(=O)[C@@H](NC(=O)[C@H](Cc1ccccc1)NC(=O)[C@H](CCC(=O)O)NC(=O)C(C)(C)NC(=O)[C@H](C)NC(=O)[C@H](C)NC(=O)[C@H](CCC(N)=O)NC(=O)[C@H](CCCCN)NC(=O)[C@H](CC(=O)O)NC(=O)[C@H](CC(C)C)NC(=O)[C@H](Cc1ccc(O)cc1)NC(=O)[C@@H](NC(=O)[C@H](CO)NC(=O)[C@H](Cc1ccc(O)cc1)NC(=O)[C@H](CC(=O)O)NC(=O)[C@H](CO)NC(=O)[C@@H](NC(=O)[C@H](Cc1ccccc1)NC(=O)[C@@H](NC(=O)CNC(=O)[C@H](CCC(=O)O)NC(=O)C(C)(C)NC(=O)CN1CCCCC1=O)[C@@H](C)O)[C@@H](C)O)[C@@H](C)CC)C(C)C)C(N)=O)C(=O)O [Compound 209]	10 to 1000	< 0.1	27	10 to 100	94
CCCCCCCCCCCCCCCC(=O)N[C@@H](CCC(=O)NCCCC[C@H](NC(=O)[C@H](CO)NC(=O)[C@@H]1CCCN1C(=O)[C@@H]1CCCN1C(=O)[C@@H]1CCCN1C(=O)[C@H](C)NC(=O)CNC(=O)[C@H](CO)NC(=O)[C@H](CO)NC(=O)[C@@H]1CCCN1C(=O)CNC(=O)CNC(=O)[C@H](C)NC(=O)[C@H](CC(C)C)NC(=O)[C@H](CC(C)C)NC(=O)[C@H](Cc1c[nH]c2ccccc12)NC(=O)[C@H](CC(N)=O)NC(=O)[C@@H](NC(=O)[C@H](Cc1ccccc1)NC(=O)[C@H](CCC(=O)O)NC(=O)C(C)(C)NC(=O)[C@H](C)NC(=O)[C@H](C)NC(=O)[C@H](CCC(N)=O)NC(=O)[C@H](CCCCN)NC(=O)[C@H](CC(=O)O)NC(=O)[C@H](CC(C)C)NC(=O)[C@H](Cc1ccc(O)cc1)NC(=O)[C@@H](NC(=O)[C@H](CO)NC(=O)[C@H](Cc1ccc(O)cc1)NC(=O)[C@H](CC(=O)O)NC(=O)[C@H](CO)NC(=O)[C@@H](NC(=O)[C@H](Cc1ccccc1)NC(=O)[C@@H](NC(=O)CNC(=O)[C@H](CCC(=O)O)NC(=O)C(C)(C)NC(=O)CCN1CCCCC1=O)[C@@H](C)O)[C@@H](C)O)[C@@H](C)CC)C(C)C)C(N)=O)C(=O)O [Compound 210]	10 to 1000	< 0.1	40	10 to 100	90
CCCCCCCCCCCCCCCC(=O)N[C@@H](CCC(=O)NCCCC[C@H](NC(=O)[C@H](CO)NC(=O)[C@@H]1CCCN1C(=O)[C@@H]1CCCN1C(=O)[C@@H]1CCCN1C(=O)[C@H](C)NC(=O)CNC(=O)[C@H](CO)NC(=O)[C@H](CO)NC(=O)[C@@H]1CCCN1C(=O)CNC(=O)CNC(=O)[C@H](C)NC(=O)[C@H](CC(C)C)NC(=O)[C@H](CC(C)C)NC(=O)[C@H](Cc1c[nH]c2ccccc12)NC(=O)[C@H](CC(N)=O)NC(=O)[C@@H](NC(=O)[C@H](Cc1ccccc1)NC(=O)[C@H](CCC(=O)O)NC(=O)C(C)(C)NC(=O)[C@H](C)NC(=O)[C@H](C)NC(=O)[C@H](CCC(N)=O)NC(=O)[C@H](CCCCN)NC(=O)[C@H](CC(=O)O)NC(=O)[C@H](CC(C)C)NC(=O)[C@H](Cc1ccc(O)cc1)NC(=O)[C@@H](NC(=O)[C@H](CO)NC(=O)[C@H](Cc1ccc(O)cc1)NC(=O)[C@H](CC(=O)O)NC(=O)[C@H](CO)NC(=O)[C@@H](NC(=O)[C@H](Cc1ccccc1)NC(=O)[C@@H](NC(=O)CNC(=O)[C@H](CCC(=O)O)NC(=O)[C@H](C)NC(=O)CN1CCCCC1=O)[C@@H](C)O)[C@@H](C)O)[C@@H](C)CC)C(C)C)C(N)=O)C(=O)O [Compound 211]	10 to 1000	< 0.1	50	0.1 to 1	91
CCCCCCCCCCCCCCCC(=O)N[C@@H](CCC(=O)NCCCC[C@H](NC(=O)[C@H](CO)NC(=O)[C@@H]1CCCN1C(=O)[C@@H]1CCCN1C(=O)[C@@H]1CCCN1C(=O)[C@H](C)NC(=O)CNC(=O)[C@H](CO)NC(=O)[C@H](CO)NC(=O)[C@@H]1CCCN1C(=O)CNC(=O)CNC(=O)[C@H](C)NC(=O)[C@H](CC(C)C)NC(=O)[C@H](CC(C)C)NC(=O)[C@H](Cc1c[nH]c2ccccc12)NC(=O)[C@H](CC(N)=O)NC(=O)[C@@H](NC(=O)[C@H](Cc1ccccc1)NC(=O)[C@H](CCC(=O)O)NC(=O)C(C)(C)NC(=O)[C@H](C)NC(=O)[C@H](C)NC(=O)[C@H](CCC(N)=O)NC(=O)[C@H](CCCCN)NC(=O)[C@H](CC(=O)O)NC(=O)[C@H](CC(C)C)NC(=O)[C@H](Cc1ccc(O)cc1)NC(=O)[C@@H](NC(=O)[C@H](CO)NC(=O)[C@H](Cc1ccc(O)cc1)NC(=O)[C@H](CC(=O)O)NC(=O)[C@H](CO)NC(=O)[C@@H](NC(=O)[C@H](Cc1ccccc1)NC(=O)[C@@H](NC(=O)CNC(=O)[C@H](CCC(=O)O)NC(=O)[C@H](C)NC(=O)CCN1CCCCC1=O)[C@@H](C)O)[C@@H](C)O)[C@@H](C)CC)C(C)C)C(N)=O)C(=O)O [Compound 212]	10 to 1000	< 0.1	50	1 to 10	90
